Experimental data: patent publication US7723527B2 (Janssen Pharmaceutica NV, priority 2003, dated 2010)
Blank lines part the entries; values can stand above or below the compound they belong to.

Tests used:
[1] = system: human eosinophils; assay: Inhibition of histamine-induced eosinophil shape change (gated autofluorescence forward scatter assay); details: for effect on histamine-induced eosinophil shape change: human eosinophils, result in words
[2] = biological target: T1, human histamine H4 receptor (Homo sapiens, UniProt Q9H3N8); assay: Binding assay on recombinant human histamine H4 receptor (3H-histamine displacement); details: competition binding with 3H-histamine; membranes of SK-N-MC or COS7 cells expressing human H4 receptor; Cheng-Prusoff, KD 5 nM, ligand 5 nM
T1 construct: expressed in transfected cells; host or cells: SK-N-MC cells or COS7 cells, transiently transfected; cell membranes used
How it was run: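 Membranes from SK-N-MC or COS7 cells transiently transfected with human H4R, incubated with ^3H-histamine (5-70 nM) at room temperature for 45 min, nonspecific binding with 10,000 nM histamine. Filtration and scintillation counting; compound affinity from displacement of ^3H-ligand across varying concentrations.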

[3] = histamine 0.01 μM, HR antagonist 10 μM or none
[4] = histamine 0.1 μM, HR antagonist 10 μM or none
[5] = histamine 1 μM, HR antagonist 10 μM or none
[6] = histamine 10 μM, HR antagonist 10 μM or none
[7] = histamine 0 μM, HR antagonist 10 μM

IC50 ([1]; Homo sapiens, Eosinophil, read-out: IC50, inhibition of histamine-induced eosinophil shape change): 270 nM
Compound: CN1CCN(C(=O)c2cc3cc(Cl)ccc3[nH]2)CC1 [(5-chloro-1H-indol-2-yl)-(4-methyl-piperazin-1-yl)-methanone]

Compound: Cc1cnc(OCCCCC2CCN(C)CC2)cc1-c1nc2c(C)c(F)ccc2[nH]1 [Example 165, 5-Fluoro-4-methyl-2-{5-methyl-2-[4-(1-methyl-piperidin-4-yl)-butoxy]-pyridin-4-yl}-1H-benzoimidazole]
Ki [2]: 3 nM

Compound: Cc1cnc(OCCCCC2CCN(C)CC2)cc1-c1nc2cc(Cl)c(F)cc2[nH]1 [Example 166, 5-Chloro-6-fluoro-2-{5-methyl-2-[4-(1-methyl-piperidin-4-yl)-butoxy]-pyridin-4-yl}-1H-benzoimidazole]
Ki [2]: 6 nM

Compound: Cc1cnc(OCCCCC2CCN(C)CC2)cc1-c1nc2cc(C(C)(C)C)ccc2[nH]1 [Example 167, 5-tert-Butyl-2-{5-methyl-2-[4-(1-methyl-piperidin-4-yl)-butoxy]-pyridin-4-yl}-1H-benzoimidazole]
Ki [2]: 4 nM

Compound: Cc1cnc(OCCCCC2CCN(C)CC2)cc1-c1nc2c(C)c(C)ccc2[nH]1 [Example 168, 4,5-Dimethyl-2-{5-methyl-2-[4-(1-methyl-piperidin-4-yl)-butoxy]-pyridin-4-yl}-1H-benzoimidazole]
Ki [2]: 6 nM

Compound: Cc1cc(C)c2nc(-c3cc(OCCCCC4CCN(C)CC4)ncc3Cl)[nH]c2c1 [Example 169, 2-{5-Chloro-2-[4-(1-methyl-piperidin-4-yl)-butoxy]-pyridin-4-yl}-4,6-dimethyl-1H-benzoimidazole]
Ki [2]: 1 nM

Compound: CN1CCC(CCCCOc2cc(-c3nc4cc(Cl)ccc4[nH]3)c(Cl)cn2)CC1 [Example 170, 5-Chloro-2-{5-chloro-2-[4-(1-methyl-piperidin-4-yl)-butoxy]-pyridin-4-yl}-1H-benzoimidazole]
Ki [2]: 5 nM

Compound: CN1CCC(CCCCOc2cc(-c3nc4cc(Cl)c(F)cc4[nH]3)c(Cl)cn2)CC1 [Example 171, 5-Chloro-2-{5-chloro-2-[4-(1-methyl-piperidin-4-yl)-butoxy]-pyridin-4-yl}-6-fluoro-1H-benzoimidazole]
Ki [2]: 12 nM

Compound: CN1CCC(CCCCOc2cc(-c3nc4cc(C(C)(C)C)ccc4[nH]3)c(Cl)cn2)CC1 [Example 172, 5-tert-Butyl-2-{5-chloro-2-[4-(1-methyl-piperidin-4-yl)-butoxy]-pyridin-4-yl}-1H-benzoimidazole]
Ki [2]: 1 nM

Compound: CN1CCC(CCCCOc2cc(-c3nc4c(Cl)cccc4[nH]3)c(Br)cn2)CC1 [Example 173, 2-{5-Bromo-2-[4-(1-methyl-piperidin-4-yl)-butoxy]-pyridin-4-yl}-4-chloro-1H-benzoimidazole]
Ki [2]: 21 nM

Compound: CN1CCC(CCCCOc2cc(-c3nc4cc(Cl)c(F)cc4[nH]3)c(Br)cn2)CC1 [Example 174, 2-{5-Bromo-2-[4-(1-methyl-piperidin-4-yl)-butoxy]-pyridin-4-yl}-5-chloro-6-fluoro-1H-benzoimidazole]
Ki [2]: 31 nM

Compound: CN1CCC(CCCCOc2cc(-c3nc4cc(Cl)ccc4[nH]3)c(Br)cn2)CC1 [Example 175, 2-{5-Bromo-2-[4-(1-methyl-piperidin-4-yl)-butoxy]-pyridin-4-yl}-5-chloro-1H-benzoimidazole]
Ki [2]: 6 nM

Ki [2]: 4 nM
Compound: Cc1c(F)ccc2[nH]c(-c3ccc(OCCCC4CCN(C)CC4)cc3CO)nc12 [Example 176, {2-(5-Fluoro-4-methyl-1H-benzoimidazol-2-yl)-5-[3-(1-methyl-piperidin-4-yl)-propoxy]-phenyl}-methanol]

Compound: Cc1cc(C)c2nc(-c3cc(OCCCCC4CCN(C)CC4)ncc3CO)[nH]c2c1 [Example 177, {4-(4,6-Dimethyl-1H-benzoimidazol-2-yl)-6-[4-(1-methyl-piperidin-4-yl)-butoxy]-pyridin-3-yl}-methanol]
Ki [2]: 4 nM

Compound: NCCc1c[nH]cn1 [Histamine, histamine]
Fold Change (eosinophil shape change) [1, 3]: 1.01
Fold Change (eosinophil shape change) [1, 4]: 1.21
Fold Change (eosinophil shape change) [1, 5]: 1.31
Fold Change (eosinophil shape change) [1, 6]: 1.34

Compound: CN(C)CCOC(c1ccccc1)c1ccccc1 [diphenhydramine]
Fold Change (eosinophil shape change) [1, 7]: 1.00
Fold Change (eosinophil shape change) [1, 3]: 1.03
Fold Change (eosinophil shape change) [1, 4]: 1.18
Fold Change (eosinophil shape change) [1, 5]: 1.50
Fold Change (eosinophil shape change) [1, 6]: 1.63
effect on histamine-induced eosinophil shape change [1]: did not alter the histamine-induced shape change

Compound: CNC(=C[N+](=O)[O-])NCCSCc1ccc(CN(C)C)o1 [ranatidine]
Fold Change (eosinophil shape change) [1, 7]: 1.00
Fold Change (eosinophil shape change) [1, 3]: 1.04
Fold Change (eosinophil shape change) [1, 4]: 1.21
Fold Change (eosinophil shape change) [1, 5]: 1.49
Fold Change (eosinophil shape change) [1, 6]: 1.64
effect on histamine-induced eosinophil shape change [1]: did not alter the histamine-induced shape change
